Measured values from patent US8268849B2, “Multifunctional Antioxidants and methods of use thereof” (priority 2007, dated 2012).

Legend:
[1] = Drug levels in target tissues after oral administration; assay type: in vivo, Sprague Dawley rats; details: normal young rats; for drug detected in the brain: chow containing 0.05% drug for 6 days; for Lens drug level / retinal drug level: chow containing 0.05% drug for 6 days (80±10 mg/kg/day), HPLC; for retinal drug level: posterior segment
Method: To determine whether JHX-4 and JHX-8 can reach the target tissues of lens, retina and brain after oral administration, two groups of 4 young (100 g) Sprague Dawley rats were administered rat chow containing 0.05% of either drug for 6 days. […] Lens and posterior segments were homogenized in glass homogenizers in ice-cold PBS, pH 7.4, after addition of an aliquot of JHX-1 as an internal standard. The homogenates were deproteinized with 48 mM NaF and centrifuged. The supernatant was extracted with acetone. The acetone extract was evaporated under vacuum and the residue was dissolved in acetonitrile. Whole brains were similarly extracted; however, brain homogenates were deproteinized with equal amounts of 0.3 N Na2SO4 and 0.3 N Ba(OH)2. Drug levels were measured by reverse-phase HPLC with a Phenomenex LUNA 5 μm C18 column and an isocratic elution of 1:1 MeOH:Water. Detection was conducted at 245 nm and compound levels were quantified using standard curves. Lens and retinal drug levels were 200±11 and 1373±38 ng/mg protein for JHX-4 and 90±5 and 1060±12 ng/mg protein for JHX-8 respectively. Only trace amounts of either compound were detected in the brain.

[2] = Chelation study by ESI-MS, Cu^2+ solution; assay type: binding; details: 10:1 metal:compound, 45 minutes of mixing
Method: (§1) The relative amount of ions bound by JHX-1-JHX-8 was determined by electrospray ionization mass spectrometry (ESI-MS) according to the method of Baron and Hering (Baron and Hering (1998) Spectrometry J. Environ. Qual., 27:844-850). In this method solutions containing Fe^2+, Fe^3+, Cu^1+, Cu^2+, Zn^2+, Ca^2+, Mg^2+ were mixed with compound in ratios of 10:1, 1:1, and 1:10. After 45 minutes of mixing, each solution was directly infused into the MS with constant ionization energy and the relative decreases of the parent peaks in these solutions were determined. […] FIG. 3 illustrates ion binding with increased Fe^+2 concentrations results in decreased compound parent peak heights by ESI-MS when compounds contain appropriate functional groups for metal ion chelation.

[3] = system: lens opacities after whole head irradiation; assay type: in vivo; details: for appearance of lens opacities / delay of lens PSC opacities / delay of the average (50% in all animals) formation of PSC punctuate opacities: 15 Gy whole head irradiation; for delay of lens PSC opacities / delay of the average (50% in all animals) formation of PSC punctuate opacities: compared to untreated rats, JHX 0.025 wt % in chow, Pantethine 1 g/kg i.p.; for toxic effects: irradiated rats
Excerpt: Cataracts were induced by whole head gamma irradiation in 24 male Long Evans (150-200 g) rats. […] Because of the amount of drug required for this long-term study, the percentage of JHX-4 and JHX-8 utilized was ½ of the dose used in the diabetic study. […] Gamma radiation (6000 Curie Cobalt-60 Source, UNMC Experimental Radiation Facility) was delivered to the whole head of unanesthetized, restrained rats at a dose rate of dose 0.341 Gy/minute for a total dose of 15 Gy. Lens changes were monitored every 7 days by portable slit lamp and recorded on a scale from 0-6 with 0: Clear, 1: Posterior subcapsular haze, 2: Spokes, suture enhancement and powdery posterior subcapsular deposits, 3: Prominent posterior subcapsular punctate opacities with spokes and suture enhancement, 4: Posterior subcapsular opacity blocks appearance of retinal vessels, 5: Start cortical involvement, 6: Total lens opacity, visible with naked eye. Since whole head irradiation results in a temporary loss of salivary gland function, all rats received Nutra-Gel (Bio-Serv) with/without JHX-4 or -8 for the first 66 days. Subsequently, all rats received standard rat chow with/without JHX-4 or -8.

[4] = Chelation study by ESI-MS, Ca^2+ solution; assay type: binding; details: 10:1 metal:compound, 45 minutes of mixing
Method: as §1

[5] = Chelation study by ESI-MS, Mg^2+ solution; assay type: binding; details: 10:1 metal:compound, 45 minutes of mixing
Method: as §1

[6] = Chelation study by ESI-MS, Zn^2+ solution; assay type: binding; details: 10:1 metal:compound, 45 minutes of mixing
Method: as §1

[7] = Chelation study by ESI-MS, Cu^1+ solution; assay type: binding; details: 10:1 metal:compound, 45 minutes of mixing
Method: as §1

[8] = system: diabetic cataract formation; assay: Cataract formation in diabetic rats; assay type: in vivo; details: for blood sugar / toxic effects: diabetic rats; for delay of vacuole formation / delay of cortical cataracts / lens sorbitol levels: streptozotocin diabetic rats; for delay of vacuole formation / delay of cortical cataracts: 0.025% in chow; for delay of vacuole formation: versus untreated diabetic group (14 days); for delay of cortical cataracts: versus untreated diabetic group (29 days); for lens sorbitol levels: end of study (47 days)
Method: Diabetes was induced in 100 g Sprague Dawley rats with streptozotocin injection (75 mg/kg) and all rats with blood sugar levels >300 mg/dL were divided into 4 groups of 8 rats each. One group received only standard rat chow (untreated diabetic) while each of the other groups received chow containing either 0.0125% ARI Al1576, 0.025% JHX-4 or 0.025% JHX-8. Lens changes were monitored by at 3-5 day intervals by slit lamp following tropicamide mydriasis. As summarized in FIGS. 8A-8C, vacuole formation began by 14 days in the untreated diabetic group with cortical opacities observed by 29 days and mature cataracts by 44 days. […] In the two antioxidant treated groups, vacuole formation was delayed by 19 and 11 days by JHX-4 and JHX-8, respectively, and cortical cataracts by 9 and 3 days, respectively. At the end of the study (47 days) all rats were equally diabetic with HbA1C levels >11.9%. All eyes were enucleated and lens sorbitol levels were measured as previously described (Kador et al. (2007) J. Ocul. Pharmacol. Ther., 23:116-23). […] Tissue levels of JHX-4 and -8 in the lens, neural retina and brain were determined after 47 days of feeding as described above (FIG. 10). […] Overall drug levels in both the lens and retina were ca. 3-fold higher in the diabetic rats with brain levels also now present. This increase may be due to either an accumulation of drug, or increased permeability of tissues and the BBB to drug in streptozotocin diabetic rats (Mooradian et al. (2005) Diabetes, 54:2977-82).

Row | SMILES | drug detected in the brain [1] | Lens drug level [1] [ng/mg protein] | retinal drug level [1] [ng/mg protein] | % Parent Peak Remaining at 10:1 Solution of Metal:Compound [2] [%] | appearance of lens opacities [3] | delay of lens PSC opacities [3] [days] | delay of the average (50% in all animals) formation of PSC punctuate opacities [3] [days] | toxic effects [3] | % Parent Peak Remaining at 10:1 Solution of Metal:Compound [4] [%] | % Parent Peak Remaining at 10:1 Solution of Metal:Compound [5] [%] | % Parent Peak Remaining at 10:1 Solution of Metal:Compound [6] [%] | % Parent Peak Remaining at 10:1 Solution of Metal:Compound [7] [%] | blood sugar [8] | toxic effects [8] | delay of vacuole formation [8] [days] | delay of cortical cataracts [8] [days] | lens sorbitol levels [8]
1 | COc1nc(N2CC(=O)N(S(=O)(=O)N(C)C)C(=O)C2)nc(OC)c1O [JHX-8, 1-N,N′-dimethylsulfamoyl-4-(4,6-dimethoxy-5-hydroxy-2-pyrimidyl)piperazine-2,6-dione] | trace amounts | 90±5 | 1060±12 | 3.6 | delayed | 47 | 58 | No apparent toxic effects | 100.0 | 100.0 | 14.6 | 4.0 | did not alter | No apparent toxic effects | 11 | 3 | did not alter
2 | CN(C)S(=O)(=O)N1C(=O)CN(c2ncc(O)cn2)CC1=O [JHX-4, 1-N,N′-dimethylsulfamoyl-4-(5-hydroxy-2-pyrimidyl)piperazine-2,6-dione] | trace amounts | 200±11 | 1373±38 | 3.0 | delayed | 38 | 53 | No apparent toxic effects | 100.0 | 100.0 | 12.7 | 4.2 | did not alter | No apparent toxic effects | 19 | 9 | did not alter
